Results reported in patent US20130337564A1, “Treatment of Pluripotent Cells” (Janssen Biotech, Inc., priority 2012, published 2013).

Key:
[1] = test system: human embryonic stem cell line H1; test: Dose titration secondary assay: cell number, H1; assay type: cell-based; settings: Homo sapiens, Embryonic stem cell, positive control (Wnt3a/Activin A) normalized to 1.000; for activity at 0.156 µM: Conc 0.156 μM; for activity at 0.313 µM: Conc 0.313 μM; for activity at 0.625 µM: Conc 0.625 μM; for activity at 1.25 µM: Conc 1.25 μM; for activity at 2.5 µM: Conc 2.5 μM; for activity at 5 µM: Conc 5 μM; for activity at 10 µM: Conc 10 μM
Procedure: It was important to confirm the activity of hits identified from primary screening and further analyze the range of activity by dose titration. New samples of a selective subset of primary screening hits were obtained as dry powders, solubilized to make fresh stock reagents, and diluted into secondary confirmation assays to evaluate effects on human embryonic stem cells.
Culture of two human embryonic stem cells (H1 and H9) was conducted as described in Example 1. Colonies of cells were maintained in an undifferentiated, pluripotent state on Matrigel™ ([…]) coated polystyrene plastic, using a 1:30 dilution of Matrigel™ in DMEM:F12 to coat the surface. Cells were split by enzymatic passage every four days on average. Passage was performed by exposing cell monolayers to a solution of collagenase (1 mg/ml; Sigma-Aldrich) for 10 to 60 minutes at 37° C. followed by gentle scraping with a pipette tip to recover cell clusters. Clusters were allowed to sediment by gravity, then washed to remove residual collagenase. Cell clusters were split at a 1:3 ratio for maintenance culture or a 1:1 ratio for subsequent assay. The human embryonic stem cell lines were maintained at less than passage 50 and routinely evaluated for normal karyotypic phenotype and absence of mycoplasma contamination.
Cell clusters of the H1 or H9 human embryonic stem cell lines used in the assay were evenly resuspended in culture medium and plated onto Matrigel™-coated 96-well Packard VIEWPLATES (PerkinElmer) in volumes of 100 μl/well. MEF conditioned medium supplemented with 8 ng/ml bFGF was used for initial plating and expansion. Daily feeding was conducted by aspirating spent culture medium from each well and replacing with an equal volume of fresh medium. Cultures were allowed to expand one to three days after plating prior to initiating assay. Plates were maintained at 37° C., 5% CO2 in a humidified box for the duration of assay.
A subset of hits resulting from primary screening was used for follow-up study and subsequent secondary assays. Twenty compounds available as dry powders were solubilized as 10 mM stocks in DMSO and stored dessicated at […] until use Immediately prior to assay, compound stocks were diluted 1:1000 to make 10 μM test compound in DMEM:F12 base medium (Invitrogen) supplemented with 0.5% FCS (HyClone) and 100 ng/ml Activin A (R&D Biosystems). This was further diluted two-fold in series to make a seven point dilution curve for each compound, also in DMEM:F12 base medium with 0.5% FCS and 100 ng/ml Activin A.
Assay was initiated by aspirating culture medium from cell monolayers in each well followed by three washes in PBS to remove residual growth factors and serum. Test volumes of 100 μl per well were added back containing medium with 0.5% FCS and different concentrations of inhibitor compounds with 100 ng/ml Activin A, without Wnt3a. Positive control wells contained the same base medium with 0.5% FCS and with 20 ng/ml Wnt3a (R&D Biosystems) in the absence of test compound. Negative control wells contained the same base medium with 0.5% FCS, in the absence of Activin A, Wnt3a, or test compound. Assay wells were aspirated and fed again with identical concentrations of test compound or control solutions on day 2 of assay. On days 3 and 4, all assay wells were aspirated and fed with DMEM:F12 supplemented with 2% FCS and 100 ng/ml Activin A in the absence of both test compound or Wnt3a. Parallel negative control wells were maintained on days 3 and 4 in DMEM:F12 base medium with 2% FCS.
At the end of culture, cells in 96-well plates were washed twice with PBS then fixed with 4% paraformaldehyde at room temperature for 20 minutes, washed three times more with PBS, and then permeabilized with 0.5% Triton X-100 for 20 minutes at room temperature. After fixing and permeabilizing, cells were washed again three times with PBS and then blocked with 4% chicken serum (Invitrogen) in PBS for 30 minutes at room temperature. […]

[2] = MTS viability (toxicity) assay of cells expressing pluripotency markers; assay type: cell-based, human; settings: human, MTS on day 4, relative to Activin A + Wnt3a positive control, read-out: % Control (percentage viability of control); for viability at 4 days, 2.5 μM: cmpd conc 2.5 μM; for viability at 4 days, 5 μM: cmpd conc 5 μM; for viability at 4 days, 10 μM: cmpd conc 10 μM
Outline: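 A GSK-3B inhibitor library was screened for toxicity to pluripotency-marker-expressing cells. Compound was given in DMEM:F12 with 0.5% FCS and 100 ng/ml Activin A for two days, then replaced by medium with 2% FCS and Activin A. On day 4, MTS absorbance at 490 nm gave viability as percent of Activin A plus Wnt3a control wells.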

SMILES | activity at 0.156 µM [1] [%] | activity at 0.313 µM [1] [%] | activity at 0.625 µM [1] [%] | activity at 1.25 µM [1] [%] | activity at 2.5 µM [1] [%] | activity at 5 µM [1] [%] | activity at 10 µM [1] [%] | viability at 4 days, 2.5 μM [2] [%] | viability at 4 days, 5 μM [2] [%] | viability at 4 days, 10 μM [2] [%]
O=C1NC(=O)C(c2cn(CCCO)c3ncccc23)=C1c1cnccn1 [Compound 47, 3-[1-(3-Hydroxypropyl)-1H-pyrrolo[2,3-b]pyridin-3-yl]-4-pyrazin-2-yl-1H-pyrrole-2,5-dione] | 71.2 | 74.2 | 83.2 | 101 | 93.2 | 110 | 105 |  |  | 
O=C1NC(=O)C(c2nn(CCCO)c3ccccc23)=C1c1cn(-c2cccnc2)c2ccc(Cl)cc12 [Compound 52, 3-(5-Chloro-1-pyridin-3-yl-1H-indol-3-yl)-4-[1-(3-hydroxypropyl)-1H-indazol-3-yl]-1H-pyrrole-2,5-dione] | 82.6 | 103 | 130 | 145 | 110 | 2.4 | 0 | 92 | 40.1 | 2.3
CN(C)CCCn1c2c(c3ccccc31)C1=C(C(=O)NC1=O)N(c1cccc(Cl)c1)C2 [Compound 101, 4-(3-Chlorophenyl)-6-[3-(dimethylamino)propyl]-5,6-dihydropyrrolo[3′,4′:5,6]pyrido[3,4-b]indole-1,3(2H,4H)-dione] | 81.2 | 61.7 | 69.9 | 116 | 100 | 76.8 | 49.6 | 100 | 95.9 | 1.3
O=C1NC(=O)C(c2cn(CCOCCOCCO)c3ccccc23)=C1c1cn(CCO)c2ccccc12 [Compound 110, 3-[1-(2-Hydroxyethyl)-1H-indol-3-yl]-4-{1-[2-({2-[(2-hydroxyethyl)oxy]ethyl}oxy)ethyl]-1H-indol-3-yl}-1H-pyrrole-2,5-dione] | 97.4 | 116 | 119 | 111 | 117 | 53 | 12.9 | 104 | 98.5 | 81.6
O=C1NC(=O)C(c2cn(CCOCCOCCNC3CCCc4ccccc43)c3ccccc23)=C1c1cn(CCNC2CCCc3ccccc32)c2ccccc12 (stereo not shown) [Compound 144, 3-{1-[2-(1,2,3,4-Tetrahydronaphthalen-1-ylamino)ethyl]-1H-indol-3-yl}-4-(1-{2-[(2-{[2-(1,2,3,4-tetrahydronaphthalen-1-ylamino)ethyl]oxy}ethyl)oxy]ethyl}-1H-indol-3-yl)-1H-pyrrole-2,5-dione] | 59.4 | 73.4 | 89.5 | 55.2 | 19.2 | 0 | 0 | 23.9 | 2.5 | 2.4
CN(C)c1cccc(-n2cc(C3=C(c4nn(CCO)c5ccccc45)C(=O)NC3=O)c3ccccc32)c1 [Compound 145, 3-{1-[3-(Dimethylamino)phenyl]-1H-indol-3-yl}-4-[1-(2-hydroxyethyl)-1H-indazol-3-yl]-1H-pyrrole-2,5-dione] | 46.9 | 66.5 | 71.3 | 128 | 135 | 33.9 | 2.1 | 94.5 | 68.4 | 
CN(C)c1ccc(-n2cc(C3=C(c4nn(CCO)c5ccccc45)C(=O)NC3=O)c3cc(Cl)ccc32)cn1 [Compound 148, 3-{5-Chloro-1-[6-(dimethylamino)pyridin-3-yl]-1H-indol-3-yl}-4-[1-(2-hydroxyethyl)-1H-indazol-3-yl]-1H-pyrrole-2,5-dione] | 121 | 121 | 136 | 165 | 172 | 101 | 0.2 | 20.4 | 3.8 | 3.5
COC(=O)c1cncc(-n2cc(C3=C(c4nn(CCO)c5ccccc45)C(=O)NC3=O)c3cc(Cl)ccc32)c1 [Compound 150, Methyl 5-(5-chloro-3-{4-[1-(2-hydroxyethyl)-1H-indazol-3-yl]-2,5-dioxo-2,5-dihydro-1H-pyrrol-3-yl}-1H-indol-1-yl)pyridine-3-carboxylate] | 104 | 124 | 102 | 121 | 129 | 116 | 5.2 | 94.8 | 84.9 | 14.3
OCCC#Cc1nc(-c2ccc(F)cc2)c(-c2ccncc2)n1CCCc1ccccc1 [Compound 158, 4-[4-(4-Fluorophenyl)-1-(3-phenylpropyl)-5-pyridin-4-yl-1H-imidazol-2-yl]but-3-yn-1-ol] | 110 | 122 | 123 | 116 | 102 | 90.5 | 5.3 | 93.2 | 96.2 | 66.5
CN(CCO)CCCn1nc(C2=C(c3cn(-c4cccnc4)c4ccccc34)C(=O)NC2=O)c2ccccc21 [Compound 198, 3-(1-{3-[(2-Hydroxyethyl)(methyl)amino]propyl}-1H-indazol-3-yl)-4-(1-pyridin-3-yl-1H-indol-3-yl)-1H-pyrrole-2,5-dione] | 82.2 | 75.4 | 74.2 | 89.9 | 103 | 106 | 101 | 92.5 | 83.8 | 49.7
O=C1NC(=O)C(c2cn(-c3cccnc3)c3ccccc23)=C1c1cn(CCO)c2ccccc12 [Compound 206, 3-[1-(2-Hydroxyethyl)-1H-indol-3-yl]-4-(1-pyridin-3-yl-1H-indol-3-yl)-1H-pyrrole-2,5-dione] | 80.4 | 93.1 | 109 | 112 | 102 | 116 | 3.9 | 93.1 | 90.2 | 7.3
